{
  "source": "patent US6630161B1",
  "about": "“Adjuvant composition and methods for its use” (Ribi Immunochem Research, Inc., priority 1998, dated 2003)",
  "assay": "Histamine type response after intravenous administration of surfactants",
  "type": "in vivo",
  "settings": "dogs",
  "data": [
    {"compound": "polysorbate 80", "values": [
      {"measurement": "response when administered intravenously", "value": "histamine type response"}
    ]},
    {"compound": "CCCCCCCC/C=C\\CCCCCCCC(=O)OCCOCC(OCCO)C1OCC(OCCO)C1OCCO", "note": "(centres unmarked) [Tween 80]", "values": [
      {"measurement": "response when administered intravenously", "value": "histamine type response"}
    ]}
  ]
}
